We go through three compounds from PMC11280343, “Rubus urticifolius Compounds with Antioxidant Activity, and Inhibition Potential against Tyrosinase, Melanin, Hyaluronidase, Elastase, and Collagenase” (Pharmaceuticals, 2024).

Read-outs that look alike come from different tables or passages of the source.

The subject of series [1] is Nrf2. Briefly: Nrf2 activation assay, THP-1. The series is classed as cell-based. As for the experimental part: (§1) To determine the antioxidant response of the samples (at the same concentration as in the viability assay), Nrf2 activation assay was used, following the protocol carried out by Apaza Ticona et al.. Cells were cultured in 96-well plates (1 × 10^6 cells/well). […] Absorbance was measured at 540 nm using a microplate reader.

Series [2] concerns NF-κB. Briefly: NF-κB inhibition assay (LPS-stimulated), HEK001. The series is classed as cell-based. To be noted: Homo sapiens, read-out: NF-κB Inhibition at 72 h IC50 ± SEM. As for the experimental part:
(§2) To determine the anti-inflammatory activity of the samples (at the same concentration as in the viability assay), NF-κB inhibition assay was used, following the protocol carried out by Apaza Ticona et al.. Cells were cultured in 96-well plates (1 × 10^6 cells/well). […] Absorbance was measured at 450 nm using a microplate reader.

In series [3] the test system is melanin production in HMCB cells. Briefly: Melanin content assay. To be noted: Homo sapiens, 12 h. The series is classed as cell-based. The protocol: To determine the anti-melanogenic activity of the samples (at the same concentration as in the viability assay), melanin inhibition assay was used, following the protocol carried out by Apaza Ticona et al.. HMCB cells were cultured in 96-well plates (1 × 10^6 cells/well). […] Absorbance was measured at 405 nm using a microplate reader.

In series [4] the test system is NF-κB. Description: NF-κB inhibition assay (LPS-stimulated), THP-1. Particulars: Homo sapiens, read-out: NF-κB Inhibition at 72 h IC50 ± SEM. The series is classed as cell-based. As for the experimental part:
as §2

The test system of series [5] is collagenase. Briefly: Collagenase inhibitory assay. The series is classed as biochemical. Particulars: for Collagenase Inhibition (%): inhibition percentage 'at an IC50', concentration not otherwise stated; for IC50: read-out: Anti-Collagenase IC50. As for the experimental part: A fixed weight of 1 mg of azo dye-impregnated collagen was measured in the test tubes. Subsequently, 800 μL of 0.1 M Tris-HCl (pH 7) and 100 μL of the samples at the same concentrations used as in the viability assay were added to each test tube. Next, 100 μL of collagenase (200 units/mL) was immediately mixed into the mixture and the tubes were incubated at 43 °C for 1 h. After incubation, the test tubes were centrifuged at 3000 rpm for 10 min. The supernatant from each tube was transferred into 96-well plates and the absorbance of each supernatant was measured at 550 nm using a microplate reader.

Series [6] relates to Nrf2. Description: Nrf2 activation assay, HMCB. The series is classed as cell-based. Particulars: Homo sapiens, 72 h, read-out: Activation of Nrf2 production EC50. The protocol: as §1
A short description of series [7]: NR viability assay, THP-1. The series is classed as cell-based, Homo sapiens. To be noted: human. The protocol: (§3) The HEK001 (Homo sapiens cutaneous keratinocyte, CCL-2404), WS1 (Homo sapiens cutaneous fibroblast, CRL-1502), HMCB (Homo sapiens cutaneous melanoma, CRL-9607), and THP-1 (Homo sapiens peripheral blood monocyte, TIB-202) cell lines used in this study were obtained from the American Type Culture Collection (ATCC, Manassas, VA, USA). Cultivated in a Roswell Park Memorial Institute (RPMI) 1640 medium (RPMI 1640 Merck, Cat. No. R7755, New York, NY, USA) supplemented with 2 mM L-glutamine (≥99% Merck, Cat. No. 56-85-9), 10% fetal bovine serum (FBS Merck, Cat. No. TMS-016, St. Louis, MO, USA), and 10,000 units of penicillin and 10 mg streptomycin/mL (Merck, Cat. No. P4333, St. Louis, MO, USA) in culture flasks, the cells were maintained in an incubator under normoxic conditions (20–21% O2) and a humidified atmosphere (5% CO2 at 37 °C).
(§4) Mother solutions of samples (extracts, fractions, and compounds) were prepared at a concentration of […] using dimethyl sulfoxide (DMSO ≥ 99.9% Merck, Cat. No. 67-68-5, St. Louis, MO, USA) as the solvent. From these mother solutions, dilutions were prepared at concentrations ranging from 100 to 0.20 μg/mL or μM in culture medium containing 0.5% DMSO. Additionally, a negative control group consisting solely of culture medium with 0.5% DMSO was included to assess its potential cytotoxic effect on the cells.
(§5) Cell viability was evaluated using a colorimetric assay in 96-well plates, employing 3-amino-7-dimethylamino-2-methylphenazine hydrochloride salt reagent (NR, Merck, Cat. No. 553-24-2, St. Louis, MO, USA).
(§6) HEK001, WS1, HMCB, and THP-1 cell lines were cultured in 96-well plates at 37 °C with 5% CO2 until > 90% confluency was achieved (1 × 10^6 cells/well). Subsequently, the cultures were treated with sample dilutions (100–0.20 μg/mL or μM) for 72 h at 37 °C with 5% CO2 in phenol red-free RPMI. The supernatant was then discarded and the cells were washed with phosphate-buffered saline (PBS) before being incubated with […] NR (50 μg/mL; 173 μM) for 3 h at 37 °C with 5% CO2. NR labelling was performed after DMSO treatment. After incubation, the labelled sample dilutions were rapidly washed with a fixative solution composed of 1% calcium chloride (CaCl2 Merck, Cat. No. 10043-52-4, St. Louis, MO, USA) and 0.5% formaldehyde solution (≥36.0% in H2O Merck, Cat. No. 50-00-0, St. Louis, MO, USA), then diluted with 100 μL of the NR extraction solution. Finally, the plates were read at 540 nm using a microplate reader (Anthos 2020, version 2.0.5, Biochrom Ltd., Cambridge, UK).

The test system of series [8] is Nrf2. Briefly: Nrf2 activation assay, HEK001. Format: cell-based. The protocol:
as §1

Series [9] concerns THP-1 cell line. Briefly: NR viability assay, THP-1. Format: cell-based, Homo sapiens. To be noted: 72 h. The protocol: as §3, §4, §5, §6
For series [10], the system named is HMCB cell line. Description: NR viability assay, HMCB. Format: cell-based, Homo sapiens. Particulars: HMCB, NR assay, 72 h. As for the experimental part: as §3, §4, §5, §6
In series [11] the test system is WS1 cell line. Briefly: NR viability assay, WS1. The series is classed as cell-based, Homo sapiens. To be noted: WS1, NR assay, 72 h. As for the experimental part:
as §3, §4, §5, §6

Series [12] deals with HEK001 cell line. Briefly: NR viability assay, HEK001. The series is classed as cell-based, Homo sapiens. Particulars: HEK001, NR assay, 72 h. As for the experimental part: as §3, §4, §5, §6
The mark [13] stands for this setting: Homo sapiens, THP-1, 72 h; read-out: Activation of Nrf2 production EC50.
The mark [14] stands for this setting: HMCB cells, read-out: Inhibitory activity of melanin production IC50.
[15] abbreviates: Homo sapiens, HEK001, 72 h; read-out: Activation of Nrf2 production EC50.

On to `CNC(=O)c1ccccc1NC(=O)/C=C/c1ccc(OC)c(OC)c1` [Compound 1, (E)-2-(3-(3,4-dimethoxyphenyl)acrylamido)-N-methylbenzamide], for which the EC50 in series [1] (setting [13]) worked out at 0.116 µM; in series [6], 0.385 µM; in series [8] (setting [15]) it was 0.202 µM. In addition, the IC50 in series [2] (HEK001, LPS-stimulated, 72 h) is 11.2 ± 0.23 µM; in series [3] (setting [14]) it was 22.2 µM; in series [4] (THP-1, LPS-stimulated, 72 h), 12.7 ± 0.34 µM; in series [5], 76.6 ± 1.31 µM. In addition, in [5], the “Collagenase Inhibition (%)” value is recorded as 62.24 ± 1.42%. The 50% cytotoxic concentration (CC50) at 72 h in [7] (THP-1 cells (peripheral blood monocytes), THP-1, NR assay, 72 h, read-out: Viability CC50) amounted to 80 µM.
In the case of `O=C(O)c1cc(O)c2ccccc2n1` [Compound 2, 4-hydroxyquinoline-2-carboxylic acid], the EC50 is 0.49 µM in [1] (setting [13]), 0.506 µM in series [6] and 0.32 µM in series [8] (setting [15]). Also, the 50% inhibitory concentration (IC50) in [2] (HEK001, LPS-stimulated, 72 h) amounted to 35.42 ± 0.12 µM; in series [3] (setting [14]) it was 44.7 µM; in [4] (THP-1, LPS-stimulated, 72 h) it was 37.2 ± 0.72 µM; in [5], 152 ± 3.73 µM. The “Collagenase Inhibition (%)” value in series [5] stood at 24.87 ± 1.34%. The compound further displayed a half-maximal cytotoxic concentration (CC50) at 72 h in [7] (Viability CC50) of 100 µM. For the same compound, the cytotoxic concentration (CC50) in [9] (human) is above 100 µM.
Regarding `N#C/C(=C\c1ccc(O)cc1)C(=O)O` [Compound 3, (E)-2-cyano-3-(4-hydroxyphenyl)acrylic acid], the EC50 in [1] (Homo sapiens, THP-1, 72 h, read-out: Activation of Nrf2 production EC50) was determined as 0.707 µM; in [6], 1.02 µM; in series [8] (Homo sapiens, HEK001, 72 h, read-out: Activation of Nrf2 production EC50), 0.951 µM. Moreover, the CC50 was 98.6 µM in series [10]; above 100 µM in [11]; above 100 µM in series [9] (THP-1, NR assay, read-out: Viability CC50); above 100 µM in series [12]. Also, the IC50 turned out to be 55.97 ± 0.32 µM in series [2] (HEK001, 72 h); 71.1 µM in series [3] (HMCB, read-out: Inhibitory activity of melanin production IC50, HMCB cells, 12 h); 58.8 ± 0.86 µM in series [4] (THP-1, 72 h); 187 ± 2.61 µM in series [5]. Besides, in series [5], the “Collagenase Inhibition (%)” value is on record as 7.73 ± 1.21%. The CC50 at 72 h in series [7] (THP-1, NR assay, 72 h, read-out: Viability CC50) was 141 µM.

As a reminder, the EC50 is the midpoint of the concentration-response curve. What is called IC50 is the concentration at which inhibition is half-maximal. Usually CC50 stands for the concentration that lowers cell viability or growth by half.
